Experimental data reported in PMC5394417, “Investigating the molecular mechanism of positive and negative allosteric modulators in the calcium-sensing receptor dimer” (Scientific Reports, 2017).

Biological target: T1, HA-D190A CaSR mutant (Rattus norvegicus, UniProt P48442, D190A)
T1 construct: mGluR5 signal peptide (N); expressed in transfected cells; host or cells: HEK293T
T1 sequence (P48442 20-1079 D190A): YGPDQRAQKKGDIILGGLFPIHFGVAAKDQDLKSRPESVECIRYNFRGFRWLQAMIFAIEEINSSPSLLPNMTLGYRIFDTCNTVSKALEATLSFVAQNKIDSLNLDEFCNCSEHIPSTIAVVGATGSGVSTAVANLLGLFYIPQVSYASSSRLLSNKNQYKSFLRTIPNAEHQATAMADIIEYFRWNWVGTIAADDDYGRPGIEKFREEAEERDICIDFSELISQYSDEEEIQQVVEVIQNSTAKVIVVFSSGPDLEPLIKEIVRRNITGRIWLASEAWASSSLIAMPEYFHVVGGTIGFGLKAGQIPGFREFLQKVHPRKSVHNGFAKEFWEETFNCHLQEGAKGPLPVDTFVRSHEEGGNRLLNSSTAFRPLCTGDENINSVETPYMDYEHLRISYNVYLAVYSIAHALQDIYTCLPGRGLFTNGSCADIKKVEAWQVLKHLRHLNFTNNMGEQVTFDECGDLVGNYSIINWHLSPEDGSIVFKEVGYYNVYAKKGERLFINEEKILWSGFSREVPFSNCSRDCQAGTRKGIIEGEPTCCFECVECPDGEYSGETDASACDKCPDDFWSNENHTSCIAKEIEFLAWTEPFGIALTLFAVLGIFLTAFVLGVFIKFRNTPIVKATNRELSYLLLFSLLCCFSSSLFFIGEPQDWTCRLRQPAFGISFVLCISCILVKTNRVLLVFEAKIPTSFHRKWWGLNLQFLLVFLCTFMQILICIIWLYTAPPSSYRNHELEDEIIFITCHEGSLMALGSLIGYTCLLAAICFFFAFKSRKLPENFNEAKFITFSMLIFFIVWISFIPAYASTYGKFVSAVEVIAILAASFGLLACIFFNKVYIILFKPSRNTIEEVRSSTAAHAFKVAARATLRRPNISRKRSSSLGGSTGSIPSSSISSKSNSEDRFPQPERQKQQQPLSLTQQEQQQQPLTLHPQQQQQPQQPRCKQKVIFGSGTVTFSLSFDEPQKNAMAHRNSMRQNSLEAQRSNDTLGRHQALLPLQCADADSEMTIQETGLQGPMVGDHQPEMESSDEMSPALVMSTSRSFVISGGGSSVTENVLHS
Test: IP-One assay, HEK293T transiently transfected
Type: cell-based

EC50 (Ca^2+ alone): 17.8 mM
Hill coefficient ± S.E.M. (Ca^2+ alone): 3.77 ± 0.39
pEC50 ± S.E.M. (Ca^2+ alone): 1.75 ± 0.01
Max ± S.E.M. (normalized to maximum response of WT CaSR): 110 ± 11%
SMILES: [Ca+2] [Ca^2+]
